# From US7893090B2, “N-aroyl cyclic amine derivatives as orexin receptor antagonists” (SmithKline Beecham Limited, priority 2001, dated 2011)
# Key:
# [1] = central administration, freely-feeding rats, 4 hour time period; cited from earlier work
# [2] = Rat sleep/EEG studies after central administration; format: in vivo; settings: central administration at the onset of the normal sleep period; at the expense of paradoxical sleep and slow wave sleep 2
# Description: Therefore antagonists of its receptor may be useful in the treatment of sleep disorders including insomnia.
substance,measurement,setting,value
"orexin-A: ligand for the orexin-1 receptor, an agonist of the orexin receptors; 33-residue peptide, SEQ ID NO:1 (EPLPDCCRQKTCSCRLYELLHGAGNHAAGILTLNH; Homo sapien)",increase in food intake over control rats receiving vehicle,[1],approximately four-fold
same,arousal in rat sleep/EEG,[2],dose-related increase in arousal
